These results are taken from US20090029992A1, “SUBSTITUTED PYRAZOLE COMPOUNDS” (priority 2007, published 2009).

A value given as a limit tells only on which side of the number the result lay.

In assay [1] the target is T1, recombinant Aurora A (Homo sapiens, UniProt O14965).
T1 construct: purchased Upstate, Lake Placid, N.Y
T1 sequence (O14965 1-403): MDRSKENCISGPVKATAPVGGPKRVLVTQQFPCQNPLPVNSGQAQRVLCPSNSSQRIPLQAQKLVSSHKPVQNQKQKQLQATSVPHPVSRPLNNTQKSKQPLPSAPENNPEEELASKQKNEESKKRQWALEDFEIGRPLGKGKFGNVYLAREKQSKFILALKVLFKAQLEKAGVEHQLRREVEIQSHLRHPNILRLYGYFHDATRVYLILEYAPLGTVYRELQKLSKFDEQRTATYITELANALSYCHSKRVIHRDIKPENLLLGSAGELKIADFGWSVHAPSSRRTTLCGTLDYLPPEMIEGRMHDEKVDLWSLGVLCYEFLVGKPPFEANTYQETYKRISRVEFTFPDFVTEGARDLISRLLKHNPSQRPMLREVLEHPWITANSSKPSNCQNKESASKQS
Description: Aurora A (Aurora 2) inhibition assay, Z'-Lyte kinase assay. In kind it is biochemical. The following applies: ATP 10 μM, 1 h. Summed up: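 Z'-Lyte FRET assay: Aurora A (200-500 ng/mL final), Ser/Thr 1 peptide (2 μM) and ATP (10 μM) in 50 mM HEPES pH 7.5, 10 mM MgCl2, 5 mM EGTA, 0.05% Brij-35, 2 mM DTT, 1 h at room temperature. Coumarin/fluorescein emission ratio converted to percent phosphorylation; dose-response curves plotted.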

Assay [2] deals with T2, N-terminal His-tagged human Src (Homo sapiens, UniProt P12931).
T2 construct: His (N); purchased Upstate USA Inc, 706 Forest Street, Charlottesville, Va
T2 sequence (P12931 whole entry): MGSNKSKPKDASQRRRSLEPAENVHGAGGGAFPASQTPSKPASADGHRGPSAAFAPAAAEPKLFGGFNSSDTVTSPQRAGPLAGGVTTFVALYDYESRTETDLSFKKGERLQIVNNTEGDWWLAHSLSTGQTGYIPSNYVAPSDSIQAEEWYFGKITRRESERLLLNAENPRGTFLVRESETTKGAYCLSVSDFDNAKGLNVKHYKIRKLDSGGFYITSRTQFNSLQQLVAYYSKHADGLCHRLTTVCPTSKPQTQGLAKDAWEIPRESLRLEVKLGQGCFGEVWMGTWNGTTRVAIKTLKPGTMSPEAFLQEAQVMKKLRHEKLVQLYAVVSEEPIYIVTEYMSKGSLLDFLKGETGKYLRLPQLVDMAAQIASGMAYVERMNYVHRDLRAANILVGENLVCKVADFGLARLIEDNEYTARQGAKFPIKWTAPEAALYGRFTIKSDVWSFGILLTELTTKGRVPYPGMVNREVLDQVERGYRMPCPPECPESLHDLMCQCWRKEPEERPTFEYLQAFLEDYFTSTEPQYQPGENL
Description: Src kinase inhibition assay (33P-ATP filter assay). In kind it is biochemical.

Setting [3] is: group with IC50 greater than 100 nM.

Regarding `Cc1cc(Nc2cc(N3CCN(C)CC3)nc(-c3cccnc3)n2)n[nH]1` [Compound 89, N-(5-methyl-1H-pyrazol-3-yl)-6-(4-methylpiperazin-1-yl)-2-(pyridin-3-yl)pyrimidin-4-amine], the IC50 in assay [1] and in assay [2] (40 minutes at room temperature) was not above 0.1 µM in each case.
Turning to `Cc1cc(Nc2cc(N3CCN(C)CC3)nc(-c3cccc(C)c3C)n2)n[nH]1` [Example 179, 2-(2,3-dimethylphenyl)-N-(5-methyl-1H-pyrazol-3-yl)-6-(4-methylpiperazin-1-yl)pyrimidin-4-amine], the IC50 in assay [1] (setting [3]) and in assay [2] (setting [3]) was not above 1 µM throughout.
Take `Cc1cc(Nc2cc(NC3CCOCC3)nc(-c3cccc(-c4ccccc4)c3)n2)n[nH]1` [Example 159, 2-(biphenyl-3-yl)-N^4-(5-methyl-1H-pyrazol-3-yl)-N^6-(tetrahydro-2H-pyran-4-yl)pyrimidine-4,6-diamine]: the IC50 was not above 0.1 µM in assay [1] and not above 1 µM in assay [2] (setting [3]).
For `Cc1cc(Nc2cc(N3CCN(C)CC3)nc(-c3ccc(F)c(F)c3)n2)n[nH]1` [Example 168, 2-(3,4-difluorophenyl)-N-(5-methyl-1H-pyrazol-3-yl)-6-(4-methylpiperazin-1-yl)pyrimidin-4-amine], the IC50 in assay [1] and in assay [2] (40 minutes at room temperature) was not above 0.1 µM in each case.
`Cc1cc(Nc2cc(N3CCN(C)CC3)nc(-c3cccc4ccoc34)n2)n[nH]1` [Example 203, 2-(benzofuran-7-yl)-N-(5-methyl-1H-pyrazol-3-yl)-6-(4-methylpiperazin-1-yl)pyrimidin-4-amine]: the 50% inhibitory concentration (IC50) in assay [1] and in assay [2] (40 minutes at room temperature) was not above 0.1 µM throughout.
Turning to `Cc1cc(Nc2cc(NC3CCOCC3)nc(-c3ccc(F)cc3)n2)n[nH]1` [Compound 19, 2-(4-fluorophenyl)-N^4-(5-methyl-1H-pyrazol-3-yl)-N^6-(tetrahydro-2H-pyran-4-yl)pyrimidine-4,6-diamine], the IC50 in assay [1] (setting [3]) and in assay [2] (setting [3]) was not above 1 µM throughout.
In the case of `COCCN(C)c1cc(Nc2cc(C)[nH]n2)nc(-c2cccc(Cl)c2)n1` [Compound 62, 2-(3-chlorophenyl)-N^4-(2-methoxyethyl)-N^4-methyl-N^6-(5-methyl-1H-pyrazol-3-yl)pyrimidine-4,6-diamine], the IC50 in assay [1] (setting [3]) and in assay [2] (setting [3]) was not above 1 µM each time.
For `Cc1cc(Nc2cc(N3CCN(C)CC3)nc(-c3ccco3)n2)n[nH]1` [Compound 14, 2-(furan-2-yl)-N-(5-methyl-1H-pyrazol-3-yl)-6-(4-methylpiperazin-1-yl)-pyrimidin-4-amine], the IC50 in assay [1] (setting [3]) and in assay [2] (setting [3]) was not above 1 µM in each case.
Take `Cc1cc(Nc2cc(N3CCN(C)CC3)nc(-c3cc4cc(NS(=O)(=O)C5CC5)ccc4o3)n2)n[nH]1` [Example 155, N-(2-(4-(5-methyl-1H-pyrazol-3-ylamino)-6-(4-methylpiperazin-1-yl)pyrimidin-2-yl)benzofuran-5-yl)cyclopropanesulfonamide]: the IC50 in assay [1] and in assay [2] (40 minutes at room temperature) was not above 0.1 µM each time.
Consider `COCCN(C)c1cc(Nc2cc(C)[nH]n2)nc(-c2ccccc2)n1` [Example 171, N^4-(2-methoxyethyl)-N^4-methyl-N^6-(5-methyl-1H-pyrazol-3-yl)-2-phenyl pyrimidine-4,6-diamine], for which the IC50 is not above 0.1 µM in assay [1] and not above 1 µM in assay [2] (setting [3]).
On to `Cc1cc(Nc2cc(N(C)CCN(C)C)nc(-c3cccc(Cl)c3)n2)n[nH]1` [Compound 49, 2-(3-chlorophenyl)-N^4-(2-(dimethylamino)ethyl)-N^4-methyl-N^6-(5-methyl-1H-pyrazol-3-yl)pyrimidine-4,6-diamine], for which the IC50 in assay [1] (setting [3]) is not above 1 µM; in assay [2] (40 minutes at room temperature), not above 0.1 µM.
In the case of `Cc1cc(Nc2cc(N3CCN(C)CC3)nc(-c3ccc4ccccc4c3)n2)n[nH]1` [Example 135, N-(5-methyl-1H-pyrazol-3-yl)-6-(4-methylpiperazin-1-yl)-2-(naphthalen-2-yl)pyrimidin-4-amine], the IC50 in assay [1] and in assay [2] (40 minutes at room temperature) was not above 0.1 µM in each case.
As to `Cc1cccc(-c2nc(Nc3cc(C)[nH]n3)cc(N(C)CCN(C)C)n2)c1` [Compound 52, N^4-(2-(dimethylamino)ethyl)-N^4-methyl-N^6-(5-methyl-1H-pyrazol-3-yl)-2-m-tolylpyrimidine-4,6-diamine], the IC50 in assay [1] (setting [3]) and in assay [2] (setting [3]) was not above 1 µM each time.
Regarding `Cc1cc(Nc2cc(N3CCN(C)CC3)nc(-c3ccccc3C)n2)n[nH]1` [Compound 40, N-(5-methyl-1H-pyrazol-3-yl)-6-(4-methylpiperazin-1-yl)-2-o-tolylpyrimidin-4-amine], the values for the IC50 in assay [1] (setting [3]) and in assay [2] (40 minutes at room temperature) were not above 1 µM and not above 0.1 µM, respectively.
Take `Cc1cc(Nc2cc(N(C)CCN(C)C)nc(-c3cccc4ccoc34)n2)n[nH]1` [Example 205, 2-(benzofuran-7-yl)-N^4-(2-(dimethylamino)ethyl)-N^4-methyl-N^6-(5-methyl-1H-pyrazol-3-yl)pyrimidine-4,6-diamine]: the IC50 in assay [1] (setting [3]) and in assay [2] (setting [3]) was not above 1 µM each time.
Take `COCCN(C)c1cc(Nc2cc(C)[nH]n2)nc(-c2ccc3c(c2)OCO3)n1` [Example 153, 2-(benzo[d][1,3]dioxol-5-yl)-N^4-(2-methoxyethyl)-N^4-methyl-N^6-(5-methyl-1H-pyrazol-3-yl)pyrimidine-4,6-diamine]: the IC50 in assay [1] was not above 0.1 µM; in assay [2] (setting [3]), not above 1 µM.
Turning to `Cc1cc(Nc2cc(NC3CCOCC3)nc(-c3ccc(Cl)cc3)n2)n[nH]1` [Compound 22, 2-(4-chlorophenyl)-N^4-(5-methyl-1H-pyrazol-3-yl)-N^6-(tetrahydro-2H-pyran-4-yl)pyrimidine-4,6-diamine], the IC50 in assay [1] (setting [3]) and in assay [2] (setting [3]) was not above 1 µM in each case.
With `Cc1cc(Nc2cc(NC3CCOCC3)nc(-c3ccc4c(c3)OCO4)n2)n[nH]1` [Example 132, 2-(benzo[d][1,3]dioxol-5-yl)-N^4-(5-methyl-1H-pyrazol-3-yl)-N^6-(tetrahydro-2H-pyran-4-yl)pyrimidine-4,6-diamine], the IC50 in assay [1] and in assay [2] (40 minutes at room temperature) was not above 0.1 µM throughout.
As for `COc1ccc(-c2nc(Nc3cc(C)[nH]n3)cc(N3CCN(C)CC3)n2)cc1` [Compound 41, 2-(4-methoxyphenyl)-N-(5-methyl-1H-pyrazol-3-yl)-6-(4-methylpiperazin-1-yl)pyrimidin-4-amine], the IC50 in assay [1] and in assay [2] (40 minutes at room temperature) was not above 0.1 µM each time.
Regarding `Cc1ccc(F)c(-c2nc(Nc3cc(C)[nH]n3)cc(N3CCN(C)CC3)n2)c1` [Example 193, 2-(2-fluoro-5-methylphenyl)-N-(5-methyl-1H-pyrazol-3-yl)-6-(4-methylpiperazin-1-yl)pyrimidin-4-amine], the IC50 in assay [1] and in assay [2] (40 minutes at room temperature) was not above 0.1 µM each time.
On to `Cc1cc(Nc2cc(N3CCN(C)CC3)nc(-c3cccc(F)c3F)n2)n[nH]1` [Example 200], for which the IC50 was not above 1 µM in assay [1] (setting [3]) and not above 0.1 µM in assay [2] (40 minutes at room temperature).
With `CC(=O)N1CCN(c2cc(Nc3cc(C)[nH]n3)nc(-c3cc4ccccc4n3C)n2)CC1` [Compound 6, 1-(4-(6-(5-methyl-1H-pyrazol-3-ylamino)-2-(1-methyl-1H-indol-2-yl)pyrimidin-4-yl)-piperazin-1-yl)ethanone], the concentration for half-maximal inhibition (IC50) in assay [1] and in assay [2] (40 minutes at room temperature) was not above 0.1 µM throughout.
As to `Cc1cc(C)cc(-c2nc(Nc3cc(C)[nH]n3)cc(N3CCN(C)CC3)n2)c1` [Example 169, 2-(3,5-dimethylphenyl)-N-(5-methyl-1H-pyrazol-3-yl)-6-(4-methylpiperazin-1-yl)pyrimidin-4-amine], the IC50 is not above 0.1 µM in assay [1] and not above 1 µM in assay [2] (setting [3]).
As to `COc1ccc(F)c(-c2nc(Nc3cc(C)[nH]n3)cc(N3CCN(C)CC3)n2)c1` [Example 197, 2-(2-fluoro-5-methoxyphenyl)-N-(5-methyl-1H-pyrazol-3-yl)-6-(4-methylpiperazin-1-yl)pyrimidin-4-amine], the IC50 in assay [1] and in assay [2] (40 minutes at room temperature) was not above 0.1 µM throughout.
Regarding `Cc1cc(Nc2cc(N3CCN(C)CC3)nc(-c3ccc(Cl)cc3)n2)n[nH]1` [Compound 35, 2-(4-chlorophenyl)-N-(5-methyl-1H-pyrazol-3-yl)-6-(4-methylpiperazin-1-yl)pyrimidin-4-amine], the IC50 in assay [1] and in assay [2] (40 minutes at room temperature) was not above 0.1 µM each time.
As for `Cc1cc(Nc2cc(N3CCN(C)CC3)nc(-c3cc4ccccc4o3)n2)n[nH]1` [Compound 1, 2-(benzofuran-2-yl)-N-(5-methyl-1H-pyrazol-3-yl)-6-(4-methylpiperazin-1-yl)pyrimidin-4-amine], the IC50 in assay [1] and in assay [2] (40 minutes at room temperature) was not above 0.1 µM each time.
For the compound `Cc1cc(Nc2cc(N3CCN(C)CC3)nc(-c3cccc(OC(F)(F)F)c3)n2)n[nH]1` [Example 192, N-(5-methyl-1H-pyrazol-3-yl)-6-(4-methylpiperazin-1-yl)-2-(3-(trifluoromethoxy)phenyl)pyrimidin-4-amine], the IC50 in assay [1] and in assay [2] (40 minutes at room temperature) was not above 0.1 µM throughout.
On to `Cc1cc(Nc2cc(N3CCN(C)CC3)nc(-c3ccc4c(c3)OC(F)(F)O4)n2)n[nH]1` [Example 178, 2-(2,2-difluorobezo[d][1,3]dioxol-5-yl)-N-(5-methyl-1H-pyrazol-3-yl)-6-(4-methylpiperazin-1-yl)pyrimidin-4-amine], for which the IC50 in assay [1] (setting [3]) was not above 1 µM; in assay [2] (40 minutes at room temperature), not above 0.1 µM.

In general, IC50 refers to the concentration needed to halve the response being measured.
